# Experimental data reported in article PMC6562844, “A Basic Study of Photodynamic Therapy with Glucose-Conjugated Chlorin e6 Using Mammary Carcinoma Xenografts” (Cancers, 2019).
# Read-outs that look alike come from different tables or passages of the source.
# What was measured:
# SNP cells [1] = assay: Kinetics experiment to assess apoptosis (IncuCyte Annexin V live-cell analysis); assay type: cell-based, canine; conditions: 5 J/cm^2
# Protocol: SNP cells were seeded at a density of (1–2) × 10^4 cells/well in 96-well plates and incubated for 24 h. The cells were then incubated with various concentrations of G-Ce6 (0, 0.064, 0.32, 1.6, or 8.0 μg/mL) for 24 h at 37 °C. After washing with fresh media, the cells were irradiated with 650-nm laser light (10 mW/cm^2, 5 J/cm^2) emitted by a semiconductor laser, using an optical fiber with a microlens delivery attachment. The cells were then stained with IncuCyte® Annexin V (Essen BioScience Inc., Ann Arbor, MI, USA) immediately following PDT, and incubated in a 5% CO2 atmosphere at 37 °C for 24 h. Images were automatically captured every 1 h for 24 h in phase-contrast and fluorescence modes using the IncuCyte® S3 system; phase contrast and green-phase images were obtained from the system. The total green object integrated intensity (green calibrated unit (GCU) × μm²/image) in an image was determined by object counting with IncuCyte® S3 Software according to the manufacturer’s protocol. In the present study, object counting is defined as the total sum of the intensity of Annexin V Green fluorescence in the image.
# SNP cells [2] = assay: Effect of a pan-caspase inhibitor on G-Ce6-PDT-induced cell death; assay type: cell-based, canine; conditions: 8 μg/mL G-Ce6; 10 μM Z-VAD-FMK; 5 J/cm^2
# Protocol: SNP cells were incubated with 8 μg/mL G-Ce6 for 24 h in the presence (10 μM) or absence of Z-VAD-FMK (Medical & Biological Laboratories Co. Ltd., Aichi, Japan), which is a pan-caspase inhibitor. After washing with fresh media, the cells were irradiated with 650-nm laser light (10 mW/cm^2, 5 J/cm^2) emitted by a semiconductor laser, using an optical fiber with a microlens delivery attachment. Apoptosis was assessed at 4 h after laser irradiation using the Muse Annexin V and Dead Cell Assay kit.
# [3] = Pharmacokinetics after intravenous administration in healthy dogs; assay type: in vivo; conditions: beagle, dog, plasma, i.v.; for Vd: read-out: Vdss
# Protocol: (§1) The animal protocol using healthy beagle dogs was approved by the Animal Research Committee of the Tottori University (project number: 17-T-3). For the pharmacokinetic crossover study, 6, 3, and 1 healthy beagle dogs were intravenously administered G-Ce6 at a dose of 2, 5, and 20 mg/kg, respectively. The ages of the healthy dogs (3 males and 3 females) ranged from 6–12 years old (mean and median, 8.6 and 7.5 years, respectively); the dogs weighed 8.7–11.2 kg (mean and median, 10.2 and 10.5 kg, respectively).
# The volume of G-Ce6 required to achieve the desired doses was diluted with 0.5% saline to obtain a total injection volume of 10 mL. The full injection volume was intravenously administered over 10 min at a rate of 60 mL/h using an appropriate syringe pump.
# Blood samples were collected at 0, 10, and 30 min, and 1, 3, 6, and 24 h after the end of G-Ce6 injection. The samples were mixed with heparin in plastic tubes and centrifuged at 600 × g for 5 min at 4 °C; 0.2 mL of plasma from each centrifuged sample was transferred to Eppendorf tubes. The collected plasma samples were kept in the dark to avoid light exposure until assay initiation. For fluorescence measurement, plasma was read on a Fluorescence Spectrometer SH-9000Lab (excitation, 405 nm and emission, 665 nm; Hitachi High-Technologies Co., Tokyo, Japan). The concentration of G-Ce6 was determined by comparison with appropriate standards. The concentrations of G-Ce6 in the plasma were fitted to a two-compartment model and analyzed with a pharmacokinetic analysis program (http://www.pharm.kyoto-u.ac.jp/byoyaku/Kinetics/download.html). The pharmacokinetic parameters were calculated as follows: half-life (T1/2) = ln 2/β, where β is the slope of the elimination phase; volume of distribution at steady state (Vdss) = dose (A/α^2 + B/β^2)/((A/α) + (B/β))^2, where A and B are the intercepts of the distribution and elimination phases, respectively; α is the slope of the distribution phase; and clearance (CL) = dose/AUC, where AUC is the area under the curve, which was calculated using the trapezoidal method.
# [4] = General physical examination and blood analysis in dogs; assay type: in vivo, healthy beagle dogs; conditions: for ALP / ALT / AST / BUN / Cre / GGT / Glu: Post (1 day after administration)
# Protocol: as §1
# A general physical examination was performed on all dogs before and after PDT. Serum biochemistry analysis of glucose (Glu), AST, ALT, alkaline phosphatase (ALP), γ-glutamyltranspeptidase (GGT), blood urea nitrogen, and creatinine (Cre) was also performed for all dogs immediately before and 1 day after G-Ce6 administration.
# SNP cells [5] = assay: Photodynamic cytotoxicity in SNP cells (Cell Counting Kit-8); assay type: cell-based, canine; conditions: 650-nm laser, 1 J/cm^2, data not shown
smiles,measurement,setting,value
"CCC1=C(C)c2cc3[nH]c(cc4nc(c(CC(=O)OC)c5[nH]c(cc1n2)c(C)c5C(=O)OC)[C@@H](CCC(=O)OC)[C@@H]4C)c(C)c3C(C)OCCCS[C@@H]1O[C@H](CO)[C@@H](O)[C@H](O)[C@H]1O (stereo partly drawn) [G-Ce6, Methyl (7S,8S)-18-ethyl-5-(2-methoxy-2-oxoethyl)-7-(3-methoxy-3-oxopropyl)-2,8,12,17-tetramethyl-13-(1-(3-(((2S,3R,4S,5S,6R)-3,4,5-trihydroxy-6-(hydroxymethyl)tetrahydro-2H-pyran-2-yl)thio)propoxy)ethyl)-7H,8H-porphyrin-3-carboxylate]",Time after PDT at which GCU began to increase,SNP cells [1]; 0.32 μg/mL,1 to 3 h
same,Time after PDT at which GCU reached a maximum,SNP cells [1]; 0.32 μg/mL,10 h
same,Time after PDT at which apoptosis (GCU) reached a plateau,SNP cells [1]; 8 μg/mL,approximately 4 h
same,Total green object integrated intensity (GCU × μm²/image) after PDT,SNP cells [1]; <0.064 μg/mL,did not increase
same,G-Ce6-PDT-induced apoptosis and cell death in the presence of Z-VAD-FMK,SNP cells [2],could not be blocked
same,AUC,[3]; 5 mg/kg (n = 3),59700 ± 7870 ng·h/mL
same,Cmax,[3]; 5 mg/kg (n = 3),47000 ± 12200 ng/mL
same,clearance,[3]; 5 mg/kg (n = 3),1.41 mL/min/kg
same,half-life,[3]; 5 mg/kg (n = 3),170 ± 36 min
same,Vd,[3]; 5 mg/kg (n = 3),0.258 ± 0.0656 L/kg
same,AUC,[3]; 20 mg/kg (n = 1),235000 ng·h/mL
same,Cmax,[3]; 20 mg/kg (n = 1),82000 ng/mL
same,clearance,[3]; 20 mg/kg (n = 1),1.42 mL/min/kg
same,half-life,[3]; 20 mg/kg (n = 1),151 min
same,Vd,[3]; 20 mg/kg (n = 1),0.284 L/kg
same,AUC,"[3]; both sexes, 2 mg/kg (n = 6)",12000 ± 3180 ng·h/mL
same,Cmax,"[3]; both sexes, 2 mg/kg (n = 6)",15200 ± 4440 ng/mL
same,clearance,"[3]; both sexes, 2 mg/kg (n = 6)",2.93 mL/min/kg
same,half-life,"[3]; both sexes, 2 mg/kg (n = 6)",181 ± 34.8 min
same,Vd,"[3]; both sexes, 2 mg/kg (n = 6)",0.529 ± 0.189 L/kg
same,Changes in serum biochemical parameters,[4]; 2 mg/kg i.v.,No significant changes
same,"Major skin photosensitivity or acute toxicity (vomiting, diarrhea, salivation)",[4]; 2 mg/kg i.v.,no evidence
same,Tolerability in safety examination,[4]; 2 mg/kg i.v.,well tolerated
same,ALP,[4]; 2 mg/kg i.v.,154 ± 59.69 U/L
same,ALT,[4]; 2 mg/kg i.v.,40 ± 7.17 U/L
same,AST,[4]; 2 mg/kg i.v.,32 ± 4.72 U/L
same,BUN,[4]; 2 mg/kg i.v.,15.8 ± 4.20 mg/dL
same,Cre,[4]; 2 mg/kg i.v.,0.5 ± 0.09 mg/dL
same,GGT,[4]; 2 mg/kg i.v.,1.5 ± 2.35 U/L
same,Glu,[4]; 2 mg/kg i.v.,99.5 ± 17.85 mg/dL
same,Changes in serum biochemical parameters,[4]; 5 mg/kg i.v.,no significant changes
same,Side effects during administration,[4]; 5 mg/kg i.v.,Nausea was observed
same,ALP,[4]; 5 mg/kg i.v.,141.0 ± 47.04 U/L
same,ALT,[4]; 5 mg/kg i.v.,59.0 ± 9.52 U/L
same,AST,[4]; 5 mg/kg i.v.,31.0 ± 10.47 U/L
same,BUN,[4]; 5 mg/kg i.v.,13.4 ± 5.05 mg/dL
same,Cre,[4]; 5 mg/kg i.v.,0.5 ± 0.13 mg/dL
same,GGT,[4]; 5 mg/kg i.v.,5.0 ± 1.63 U/L
same,Glu,[4]; 5 mg/kg i.v.,96.0 ± 10.88 mg/dL
same,Levels of AST and ALT in blood,[4]; 20 mg/kg i.v.,Increases
same,Side effects during administration,[4]; 20 mg/kg i.v.,vomiting and weakness
same,ALP,[4]; 20 mg/kg i.v.,134.0 U/L
same,ALT,[4]; 20 mg/kg i.v.,135.0 U/L
same,AST,[4]; 20 mg/kg i.v.,55.0 U/L
same,BUN,[4]; 20 mg/kg i.v.,8.6 mg/dL
same,Cre,[4]; 20 mg/kg i.v.,0.5 mg/dL
same,GGT,[4]; 20 mg/kg i.v.,14.0 U/L
same,Glu,[4]; 20 mg/kg i.v.,107.0 mg/dL
same,Toxic dose level,[4]; i.v.,20 mg/kg
same,"Optimal dose, which did not cause any adverse effects","[4]; i.v., based on pharmacokinetics and safety examination",2 mg/kg
same,Cytotoxicity after 1 h incubation,SNP cells [5],No cytotoxicity was observed
